From ChEMBL document CHEMBL5126499, “Small molecule therapeutics for tauopathy in Alzheimer's disease: Walking on the path of most resistance” (Eur J Med Chem, 2021)
Blank lines part the entries; values can stand above or below the compound they belong to.

What was measured:
[1] = Induction of SirT2 production in mouse N2a cells transfected with ApoE4 assessed as increase in SirT2 levels by sandwich ELISA; format: functional, cell-based
[2] = Tmax in mouse brain at 10 mg/kg, ip; format: ADME, organism-based
[3] = Cmax in mouse brain at 10 mg/kg, ip; format: ADME, organism-based; set-up: dose 10 mg/kg, route ip; settings: in vivo
[4] = Inhibition of HSP70 in human HeLa C3 cells overexpressing tau protein assessed as reduction in tau protein level measured after 24 hrs by Western blot analysis; format: cell-based; settings: HeLa C3, 24 h
[5] = Inhibition of HSP70 in human SK-N-BE(2)-M17 cells overexpressing tau protein assessed as reduction in tau protein level measured after 24 hrs by Western blot analysis; format: cell-based; settings: SK-N-BE(2)-M17, 24 h
SK-N-BE(2)-M17 = test: Inhibition of HSP70 in human SK-N-BE(2)-M17 cells overexpressing tau protein assessed as reduction in tau protein level at 0.025 to 9 uM measured after 24 hrs by Western blot analysis relative to control; format: cell-based; settings: dose 0.025-9 µM
HeLa C3 = test: Inhibition of HSP70 in human HeLa C3 cells overexpressing tau protein assessed as reduction in tau protein level at 0.025 to 9 uM measured after 24 hrs by Western blot analysis relative to control; format: cell-based; settings: dose 0.025-9 µM
Homo sapiens = organism: Homo sapiens; test: Inhibition of human HSP70 ATPase activity at 10 uM incubated for 3 hrs by malachite green reagent based HTS analysis relative to control
[6] = Inhibition of human HSP70 ATPase activity at incubated for 3 hrs by malachite green reagent based HTS analysis
[7] = Reduction of tau protein level in human HeLa C3 cells transfected with human 4R0N tau at 30 uM incubated for 24 hrs by Western blot analysis relative to control; format: functional; set-up: scale not given: the % may be the effect or the level left
Drosophila = test: Inhibition of tau protein accumulation in Drosophila larvae eye assessed as reduction in tau protein level at 0.75 mg/ml dripped every other day by immunohistochemistry; format: functional

Structure (SMILES): CC(N)C(=O)OC(C)(C)Cc1ccc(Cl)cc1 (stereo unspecified) [ALAPROCLATE]
- EC50 [1]: 2 µM

Structure (SMILES): CNc1ccc2nc3ccc(N)cc3[s+]c2c1 [AZURE C]
- IC50 [6]: 11 µM
- inhibition (Homo sapiens): > 80%

Structure (SMILES): CCn1c(=O)/c(=C2\Sc3cc(C(F)(F)F)ccc3N2C)s/c1=C\c1ccccn1
- Activity [7]: 50%

Structure (SMILES): O=c1c(O)c(-c2cc(O)c(O)c(O)c2)oc2cc(O)cc(O)c12 [MYRICETIN]
- IC50 [6]: 12 µM
- inhibition (Homo sapiens): > 80%

Structure (SMILES): O=C1C(Cl)=C(N[C@@H](Cc2c[nH]c3ccccc23)C(=O)O)C(=O)c2ccccc21
- inhibition at 750 µg/mL (Drosophila): 70%

The next lines start with results.

- Tmax [2]: 30 min
- Cmax [3]: 1.5 ng/mg
Structure (SMILES): CCNC1=NC(c2ccc(F)cc2)NC(=O)N1 (stereo unspecified)

- EC50 [4]: 8 µM
Structure (SMILES): CCn1c(=O)/c(=C2\Sc3ccccc3N2C)s/c1=C\c1cccc[n+]1CC

- EC50 [5]: 1.5 µM
- EC50 [4]: 0.9 µM
Structure (SMILES): CCn1c(=O)/c(=C2\Sc3ccccc3N2C)s/c1=C\c1cccc[n+]1C
- inhibition (SK-N-BE(2)-M17): 75%
- inhibition (HeLa C3): 75%

- inhibition (Homo sapiens): > 80%
Structure (SMILES): CN(C)c1ccc2nc3ccc(=[N+](C)C)cc-3sc2c1

- IC50 [6]: 83 µM
Structure (SMILES): CN(C)c1ccc2nc3ccc(N(C)C)cc3[s+]c2c1 [METHYLENE BLUE ANHYDROUS]
